Measurements published in article PMC10610379, “Epidrugs as Promising Tools to Eliminate Plasmodium falciparum Artemisinin-Resistant and Quiescent Parasites” (Pharmaceutics, 2023).
“And” between values parts separate entries of the source, which are not always exact repeats. Identical values can stand only once. Like-named read-outs stand apart in the source and are kept apart here.

Legend:
[1] = system: Plasmodium falciparum F32-TEM (artemisinin-sensitive twin line); test: Standard chemosensitivity assay (SYBR Green I), F32-TEM; type: cell-based; settings: Plasmodium falciparum, read-out: Antiplasmodial Activity: IC50, F32-TEM
Method: (§1) They differ by eight mutations in seven genes (PF3D7_0110400, PF3D7_1343700, PF3D7_0213400, PF3D7_1115700, PF3D7_1302100, PF3D7_1459600, PF3D7_1464500) among them the M476I mutation on the kelch13 gene. F32-ART and F32-TEM strains have RSA^0–3 h values up to 12% and less than 0.1%, respectively. […] Both strains were cultured, in the same conditions, according to the Trager and Jensen protocol with modifications. Briefly, parasites were cultivated in RPMI-1640 medium (Biowest) at 2% hematocrit in human red blood cells and 5% human serum (EFS, French Blood Bank) under 5% CO2 in a humid atmosphere at 37 °C.
(§2) The antimalarial activities of the compounds were evaluated on both strains. […] Antimalarial activities were determined with the SYBR Green I method. Each drug concentration was tested in triplicate. The parasites were incubated with the drugs for 48 h. Plates were read on a BioTek FLX800 Microplate Fluorescence Reader (Bio-Tek instruments, Winooski, VT, USA) (λexcitation = 485 nm, λemission = 528 nm). Control parasite culture (i.e., RPMI with 0.5% DMSO) was referred to as 100% growth. IC50 and IC90 values were determined using GraphPad Prism version 7.05 (GraphPad Software, San Diego, CA, USA). Results were the mean of 3 independent experiments. When it is relevant, statistical significance between results obtained with both parasite strains was determined by a Mann–Whitney test using GraphPad Prism version 7.05.

[2] = system: Plasmodium falciparum F32-ART (artemisinin-resistant strain); test: Standard chemosensitivity assay (SYBR Green I), F32-ART; type: cell-based; settings: for IC50: Plasmodium falciparum, read-out: Antiplasmodial Activity: IC50, F32-ART; for Selectivity Index CC50/IC50: ratio cytotoxicity (mammalian cell type of the CC50)/antiplasmodial activity on F32-ART
Method: as §1, §2

[3] = Cytotoxicity evaluation by MTT assay; type: cell-based; settings: monkey, Vero cells, * mean of 2 experiments
Method: The cytotoxicity of all newly synthesized compounds was evaluated on the Vero cell lines (isolated from monkey kidney cells, gift from the Faculty of Pharmacy, Toulouse, France) by MTT assay according to Mosmann with slight modifications. Briefly, cells in MEM medium supplemented with 10% fetal calf serum, 2 mM L-glutamine, antibiotics (100 U/mL penicillin and 100 µg/mL streptomycin), and NEAA 1X, were seeded in 96-well plates. After a 24-h incubation at 37 °C and 5% CO2 in a humidified atmosphere, compounds were added with concentrations ranging from 5 nM to 50 μM in duplicate. […] The security index was calculated as the ratio of cytotoxicity/antiplasmodial activity.

H3K4me1 = test: Immunoblotting, histone mark abundance in F32-ART parasites; type: cell-based, Plasmodium falciparum; settings: 700nM DHA alone, F32-ART ring stage; 3 replicates (Fig 3D)
Method: (§3) Abundance of methylated and acetylated histone was determined in parasite cultures in different conditions: “not-treated”, “DHA 24 h”, “DHA 6 h/DHA 24 h” and “DHA 6 h/DHA + compound to be tested 24 h”. At the end of the treatments, parasite cultures were washed in RPMI-1640 and then twice in PBS 1× before red blood cell lysis with 0.075% saponin (Sigma-Aldrich) in PBS. Parasite ghosts were washed 3 times in PBS before incubating the ghosts with E1A lysis buffer (50 mM Hepes pH 7.5; 250 mM NaCl; 5 mM EDTA; 0.1% Triton X-100, 1 mM DTT, 0.2 mM PMSF supplemented with complete Mini EDTA-free protease inhibitor cocktail (Roche®, Basel, Switzerland)) for 15 min. Ghosts were then sonicated for 3 × 15s ON/OFF cycles to shear parasite membranes. Debris were pelleted by centrifuging for 15 min at 13,800× g and 4 °C, and supernatants (containing parasitic proteins) were then collected. Protein concentrations were determined using BCA assay (Bio-Rad, Hercules, CA, USA) according to the manufacturer’s instructions. For each sample, 10 µg of proteins were mixed with 4× sample buffer (10 mL 50% Glycerol, 5 mL 0.5 M Tris HCl pH 6.8, 4 mL 20% SDS, 0.02% Bromophenol blue for a total solution volume of 20 mL) and 100 mM DTT and then separated on 15% SDS-PAGE gels in Laemmli running buffer. Gels were then wet-transferred O/N at 20 V onto PVDF membranes. Membranes were blocked in TBST for 1 h at room temperature. Bottom parts were then probed with histone antibodies while upper parts were probed with PFALDOLASE antibody (Abcam, ab38905, Cambridge, UK) at 1:20,000 dilution. The following primary antibodies were used: anti-H3K4me1 (Abcam, ab8895); anti-H3K4me2 (Abcam, ab35356); anti-H3K9me2 (Abcam, ab1220); anti-H3K9me3 (Millipore, 07-442, Burlington, MA, USA); anti-tetra-acetyl H4 (Millipore, 06-866); anti-H4K8Ac (Millipore, 07-328); anti-H4K20me3 (Abcam, ab9053); anti-H3K4me3 (Diagenode) and anti-H3K9Ac (Millipore, 07-352) at 1:10,000. The following secondary antibodies were used: anti-rabbit IgG-Peroxidase produced in goat (Sigma-Aldrich) or anti-mouse IgG-Peroxidase (Sigma-Aldrich); at 1:20,000 dilutions. Blots were developed using ECL Prime Western Blotting (GE Healthcare, Chicago, IL, USA) and read on a Chemidoc touch imaging software. Densitometry analysis was performed by using ImageLab software from Bio-Rad. To determine if variations in histone abundances were statistically significant, immunoblotting experiments were performed on 3 biological replicates and each run was performed twice.

H3K4me3 = test: as above; type: cell-based, Plasmodium falciparum; settings: 700nM DHA alone, F32-ART ring stage; 3 replicates (Fig 3D)
Method: as §3

H4K8ac = test: as above; type: cell-based, Plasmodium falciparum; settings: 700nM DHA alone, F32-ART ring stage; 3 replicates (Fig 3D)
Method: as §3

H4K20me3 = test: as above; type: cell-based, Plasmodium falciparum; settings: 700nM DHA alone, F32-ART ring stage; 3 replicates (Fig 3D)
Method: as §3

H4ac4 = test: as above; type: cell-based, Plasmodium falciparum; settings: 700nM DHA alone, F32-ART ring stage; 3 replicates (Fig 3D)
Method: as §3

H3K4me2 = test: as above; type: cell-based, Plasmodium falciparum; settings: 700nM DHA alone, F32-ART ring stage; 3 replicates (Fig 3D)
Method: as §3

[4] = F32-TEM, 48 h incubation, SYBR Green I, mean ± SEM of 3 experiments (* mean of 2)
[5] = F32-ART, 48 h incubation, SYBR Green I, mean ± SEM of 3 experiments (* mean of 2)

Row | SMILES | IC50 [1, 4] [µM] | IC50 [2, 5] [µM] | CC50 [3] [µM] | Selectivity Index CC50/IC50 [2] | further results
1 | CC1=NN(C2CCC(C(=O)O)CC2)C(=O)C1=Cc1ccc(-c2cc(C)c(C)cc2[N+](=O)[O-])o1 (centres unmarked) [C646] |  |  |  |  | IC50 ([1]; F32, 48 h): > 10 µM; IC50 ([2]; F32, 48 h): > 10 µM
2 | O=C1c2ccccc2OC(c2ccccc2)C1(Br)[N+](=O)[O-] (centres unmarked) [MLo1502] | > 10 | > 10 | > 50 |  | 
3 | C[C@@H]1CC[C@H]2[C@@H](C)C(=O)O[C@@H]3O[C@@]4(C)CC[C@@H]1[C@]32OO4 [artemisinin, Artemisinin] | 0.013 ± 0.003 |  | > 100 |  | 
4 | COc1ccc([N+](=O)[O-])c(C2Oc3ccccc3C(=O)C2(Cl)[N+](=O)[O-])c1 (centres unmarked) [Flv880] | > 10 | > 10 | > 50 |  | 
5 | COc1cccc(C2Oc3ccccc3C(=O)C2(Cl)[N+](=O)[O-])c1 (centres unmarked) [NFlav2018] | > 10 | > 10 | > 50 |  | 
6 | O=C1c2ccccc2O[C@H](c2ccccc2[N+](=O)[O-])[C@@]1(Cl)[N+](=O)[O-] (relative stereo) [Flv69] | > 10 | > 10 | > 50 |  | 
7 | O=C1c2ccccc2O[C@H](c2ccccc2)[C@]1(F)[N+](=O)[O-] (relative stereo) [MLo1401] | > 10 | > 10 | 20 | <2 | 
8 | O=C1c2ccccc2O[C@H](c2ccccc2[N+](=O)[O-])[C@@]1(Br)[N+](=O)[O-] (relative stereo) [MLo1507] | > 10 | > 10 | 40 | <4 | 
9 | O=C1c2ccccc2OC(c2ccccc2)C1[N+](=O)[O-] (centres unmarked) [MLo1406] | > 10 | > 10 | > 50 |  | 
10 | Cc1sc2c(c1C)C(c1ccc(Cl)cc1)=N[C@@H](CC(=O)OC(C)(C)C)c1nnc(C)n1-2 [(+)-JQ-1] | > 10 | > 10 | 0.2 | <0.02 | 
11 | C[C@H]1[C@@H](O)O[C@@H]2O[C@@]3(C)CC[C@H]4[C@H](C)CC[C@@H]1[C@@]24OO3 [DHA, Dihydroartemisinin] |  |  |  |  | Fold change of H3K4me1 abundance, DHA vs DMSO (H3K4me1): 1.02 and 1.53 and 1.51; Fold change of H3K4me3 abundance, DHA vs DMSO (H3K4me3): 0.71 and 0.98 and 0.76; Fold change of H4K8ac abundance, DHA vs DMSO (H4K8ac): increased level and 2.03 and 2.07 and 2.15; Fold change of H4K20me3 abundance, DHA vs DMSO (H4K20me3): increase and 1.51 and 1.65; Fold change of H4ac4 abundance, DHA vs DMSO (H4ac4): increased level and 2.04 and 2.38 and 1.70; Fold change of H3K4me2 abundance, DHA vs DMSO (H3K4me2): 1.36 and 1.49 and 1.08
12 | COc1ccc([N+](=O)[O-])c(C2Oc3ccccc3C(=O)C2(Br)[N+](=O)[O-])c1 (centres unmarked) [MLo1508] | > 10 | > 10 | 36 | <3.6 | 
13 | C[C@]1([N+](=O)[O-])C(=O)c2ccccc2O[C@@H]1c1ccccc1[N+](=O)[O-] (relative stereo) [MLo1302] | 8 | 7 | 6.5 | 0.9 | 
14 | Cc1sc2c(c1C)C(c1ccc(Cl)cc1)=N[C@@H](CC(=O)NCC13CC4CC(CC(C4)C1)C3)c1nnc(C)n1-2 [SHH-878-1] | 10 | 10 | 3 | 0.3 | 
15 | Cc1noc(C)c1-c1ccc2c(c1)nc(CCc1ccc(O)cc1)n2CCN1CCOCC1 [AKE-040] | > 10 | > 10 | 24 | <2.4 | 
16 | O=C1c2ccccc2O[C@H](c2ccccc2F)[C@@]1(Br)[N+](=O)[O-] (relative stereo) [MLo1509] | > 10 | > 10 | > 50 |  | 
